In the NIST ThermoML archive (doi:10.1016/j.jct.2014.02.009):
± gives the expanded uncertainty stated by the source.

Conditions: 100 kPa, Liquid; for viscosity: Falling or rolling sphere viscometry; for speed of sound: Sing-around technique in a fixed-path interferometer; for mass density: Vibrating tube method

Row | SMILES | viscosity (293.15 K) | speed of sound (293.15 K) | mass density (293.15 K) | viscosity (298.15 K) | speed of sound (298.15 K) | mass density (298.15 K) | viscosity (303.15 K) | speed of sound (303.15 K) | mass density (303.15 K) | viscosity (308.15 K) | speed of sound (308.15 K) | mass density (308.15 K) | viscosity (313.15 K) | speed of sound (313.15 K) | mass density (313.15 K) | viscosity (318.15 K) | speed of sound (318.15 K) | mass density (318.15 K) | viscosity (323.15 K) | speed of sound (323.15 K) | also measured
1 | CC(=O)O.O=C1CCCCCN1 [ε-caprolactam acetate] | 39.81 ± 1.2 mPa·s | 1523.1 ± 4.2 m/s | 1060.03 ± 3.8 kg/m3 | 29.03 ± 0.85 mPa·s | 1507 ± 4.2 m/s | 1055.92 ± 3.8 kg/m3 | 21.92 ± 0.64 mPa·s | 1489.7 ± 4.2 m/s | 1051.83 ± 3.8 kg/m3 | 17.03 ± 0.5 mPa·s | 1472.8 ± 4.2 m/s | 1047.74 ± 3.7 kg/m3 | 13.68 ± 0.4 mPa·s | 1456.1 ± 4.2 m/s | 1043.65 ± 3.7 kg/m3 | 11.1 ± 0.32 mPa·s | 1439.3 ± 4.2 m/s | 1039.56 ± 3.7 kg/m3 | 9.19 ± 0.27 mPa·s | 1422.6 ± 4.2 m/s | mass density (323.15 K): 1035.46 ± 3.6 kg/m3; viscosity (328.15 K): 7.67 ± 0.22 mPa·s; speed of sound (328.15 K): 1406 ± 4.2 m/s; mass density (328.15 K): 1031.37 ± 3.6 kg/m3; viscosity (333.15 K): 6.48 ± 0.19 mPa·s; speed of sound (333.15 K): 1389.5 ± 4.2 m/s; mass density (333.15 K): 1027.28 ± 3.6 kg/m3
2 | CC(=O)O.O=C1CCCN1 [γ-butyrolactam acetate] | 9.36 ± 0.24 mPa·s | 1514.5 ± 3.2 m/s | 1099.8 ± 2.3 kg/m3 | 7.84 ± 0.2 mPa·s | 1496.7 ± 3.2 m/s | 1095.35 ± 2.3 kg/m3 | 6.66 ± 0.17 mPa·s | 1480.9 ± 3.2 m/s | 1090.91 ± 2.3 kg/m3 | 5.72 ± 0.15 mPa·s | 1464 ± 3.2 m/s | 1086.47 ± 2.2 kg/m3 | 4.96 ± 0.13 mPa·s | 1447.2 ± 3.2 m/s | 1082.03 ± 2.2 kg/m3 | 4.35 ± 0.11 mPa·s | 1429.3 ± 3.2 m/s | 1077.57 ± 2.2 kg/m3 | 3.83 ± 0.1 mPa·s | 1412.5 ± 3.2 m/s | mass density (323.15 K): 1073.12 ± 2.2 kg/m3; viscosity (328.15 K): 3.4 ± 0.09 mPa·s; speed of sound (328.15 K): 1395.7 ± 3.2 m/s; mass density (328.15 K): 1068.69 ± 2.2 kg/m3; viscosity (333.15 K): 3.06 ± 0.08 mPa·s; speed of sound (333.15 K): 1379 ± 3.2 m/s; mass density (333.15 K): 1064.24 ± 2.1 kg/m3
3 | O=C1CCCCCN1.O=CO [ε-caprolactam formate] | 30.96 ± 0.9 mPa·s | 1552 ± 4.2 m/s | 1087.05 ± 4 kg/m3 | 23.92 ± 0.7 mPa·s | 1536 ± 4.2 m/s | 1082.87 ± 4 kg/m3 | 18.86 ± 0.55 mPa·s | 1520.2 ± 4.2 m/s | 1078.69 ± 4 kg/m3 | 15.14 ± 0.44 mPa·s | 1504.4 ± 4.2 m/s | 1074.51 ± 3.9 kg/m3 | 12.36 ± 0.36 mPa·s | 1488.5 ± 4.2 m/s | 1070.32 ± 3.9 kg/m3 | 10.24 ± 0.3 mPa·s | 1472.8 ± 4.2 m/s | 1066.13 ± 3.9 kg/m3 | 8.59 ± 0.25 mPa·s | 1457.9 ± 4.2 m/s | mass density (323.15 K): 1061.95 ± 3.9 kg/m3; viscosity (328.15 K): 7.3 ± 0.21 mPa·s; speed of sound (328.15 K): 1441.1 ± 4.2 m/s; mass density (328.15 K): 1057.77 ± 3.8 kg/m3; viscosity (333.15 K): 6.27 ± 0.18 mPa·s; speed of sound (333.15 K): 1425.1 ± 4.2 m/s; mass density (333.15 K): 1053.59 ± 3.8 kg/m3
4 | CCCCCC(=O)O.O=C1CCCCCN1 [ε-caprolactam hexanoate] | 42 ± 1.2 mPa·s | 1472.7 ± 4.2 m/s | 998.59 ± 3.4 kg/m3 | 30.85 ± 0.9 mPa·s | 1456 ± 4.2 m/s | 994.69 ± 3.4 kg/m3 | 23.4 ± 0.68 mPa·s | 1439 ± 4.2 m/s | 990.78 ± 3.3 kg/m3 | 18.11 ± 0.53 mPa·s | 1421.9 ± 4.2 m/s | 986.88 ± 3.3 kg/m3 | 14.25 ± 0.42 mPa·s | 1404.8 ± 4.2 m/s | 982.97 ± 3.3 kg/m3 | 11.59 ± 0.34 mPa·s | 1387.8 ± 4.2 m/s | 979.04 ± 3.3 kg/m3 | 9.44 ± 0.28 mPa·s | 1370.8 ± 4.2 m/s | mass density (323.15 K): 975.15 ± 3.2 kg/m3; viscosity (328.15 K): 7.91 ± 0.23 mPa·s; speed of sound (328.15 K): 1353.4 ± 4.2 m/s; mass density (328.15 K): 971.24 ± 3.2 kg/m3; viscosity (333.15 K): 6.64 ± 0.19 mPa·s; speed of sound (333.15 K): 1336.8 ± 4.2 m/s; mass density (333.15 K): 967.34 ± 3.2 kg/m3
5 | O=C1CCCN1.O=CO [γ-butyrolactam formate] | 7.17 ± 0.19 mPa·s | 1531.2 ± 3.2 m/s | 1140.78 ± 2.5 kg/m3 | 6.14 ± 0.16 mPa·s | 1515.7 ± 3.2 m/s | 1136.14 ± 2.5 kg/m3 | 5.32 ± 0.14 mPa·s | 1500 ± 3.2 m/s | 1131.51 ± 2.5 kg/m3 | 4.64 ± 0.12 mPa·s | 1484.4 ± 3.2 m/s | 1126.89 ± 2.4 kg/m3 | 4.09 ± 0.11 mPa·s | 1468.5 ± 3.2 m/s | 1122.25 ± 2.4 kg/m3 | 3.63 ± 0.09 mPa·s | 1452.9 ± 3.2 m/s | 1117.61 ± 2.4 kg/m3 | 3.25 ± 0.08 mPa·s | 1437.5 ± 3.2 m/s | mass density (323.15 K): 1112.99 ± 2.4 kg/m3; viscosity (328.15 K): 2.92 ± 0.08 mPa·s; speed of sound (328.15 K): 1422.1 ± 3.2 m/s; mass density (328.15 K): 1108.35 ± 2.4 kg/m3; viscosity (333.15 K): 2.65 ± 0.07 mPa·s; speed of sound (333.15 K): 1406.8 ± 3.2 m/s; mass density (333.15 K): 1103.72 ± 2.3 kg/m3
6 | CCCCCC(=O)O.O=C1CCCN1 [γ-butyrolactam hexanoate] | 14.67 ± 0.43 mPa·s | 1429.3 ± 4.2 m/s | 1018.78 ± 3.5 kg/m3 | 12.13 ± 0.35 mPa·s | 1412.8 ± 4.2 m/s | 1014.67 ± 3.5 kg/m3 | 10.16 ± 0.3 mPa·s | 1396.2 ± 4.2 m/s | 1010.57 ± 3.5 kg/m3 | 8.63 ± 0.25 mPa·s | 1379.6 ± 4.2 m/s | 1006.47 ± 3.4 kg/m3 | 7.4 ± 0.22 mPa·s | 1363.2 ± 4.2 m/s | 1002.37 ± 3.4 kg/m3 | 6.42 ± 0.19 mPa·s | 1346.9 ± 4.2 m/s | 998.27 ± 3.4 kg/m3 | 5.61 ± 0.16 mPa·s | 1330.7 ± 4.2 m/s | mass density (323.15 K): 994.17 ± 3.4 kg/m3; viscosity (328.15 K): 4.94 ± 0.14 mPa·s; speed of sound (328.15 K): 1314.7 ± 4.2 m/s; mass density (328.15 K): 990.08 ± 3.3 kg/m3; viscosity (333.15 K): 4.39 ± 0.13 mPa·s; speed of sound (333.15 K): 1298.6 ± 4.2 m/s; mass density (333.15 K): 985.98 ± 3.3 kg/m3
